Assay: xn = mol fraction of the nth substance listed
Settings: 101 kPa, Liquid, Vibrating tube method

CNCCCN [N-methyl-1,3-diaminopropane] + CN(C)CCO
mass density [kg/m3]
Settings | x1 = 0.0998 | x1 = 0.2 | x1 = 0.3001 | x1 = 0.4 | x1 = 0.4997 | x1 = 0.5993 | x1 = 0.6999 | x1 = 0.799 | x1 = 0.9 | x1 = 1
283.15 K | 893.869 | 892.03 | 889.578 | 886.723 | 883.31 | 879.367 | 875.276 | 871.091 | 866.659 | 860.459
293.15 K | 885.469 | 883.599 | 881.113 | 878.225 | 874.783 | 870.8 | 866.663 | 862.415 | 857.904 | 851.605
303.15 K | 876.968 | 875.071 | 872.551 | 869.634 | 866.166 | 862.148 | 857.97 | 853.666 | 849.087 | 842.69
313.15 K | 868.337 | 866.42 | 863.872 | 860.932 | 857.442 | 853.398 | 849.183 | 844.832 | 840.193 | 833.715
323.15 K | 859.574 | 857.639 | 855.069 | 852.112 | 848.606 | 844.543 | 840.3 | 835.912 | 831.218 | 824.673
333.15 K | 850.654 | 848.712 | 846.131 | 843.164 | 839.647 | 835.571 | 831.314 | 826.896 | 822.163 | 815.559
343.15 K | 841.562 | 839.622 | 837.042 | 834.073 | 830.555 | 826.477 | 822.212 | 817.78 | 813.022 | 806.37
353.15 K | 832.286 | 830.357 | 827.791 | 824.83 | 821.322 | 817.252 | 812.995 | 808.563 | 803.789 | 797.093
363.15 K | 822.801 | 820.903 | 818.354 | 815.413 | 811.93 | 807.876 | 803.636 | 799.198 | 794.432 | 787.723

CNCCCN [N-methyl-1,3-diaminopropane] + O
mass density [kg/m3]
Settings | 283.15 K | 293.15 K | 303.15 K | 313.15 K | 323.15 K | 333.15 K | 343.15 K | 353.15 K | 363.15 K
x1 = 0.0051 | 998.237 | 996.63 | 993.985 | 990.476 | 986.217 | 981.304 | 975.769 | 969.7 | 963.045
x1 = 0.02 | 994.774 | 992.593 | 989.479 | 985.566 | 980.949 | 975.762 | 969.886 | 963.52 | 956.663
x1 = 0.04 | 992.84 | 989.571 | 985.557 | 980.873 | 975.589 | 969.758 | 963.394 | 956.509 | 949.281
x1 = 0.0599 | 991.664 | 987.189 | 982.161 | 976.614 | 970.587 | 964.115 | 957.198 | 949.885 | 942.172
x1 = 0.08 | 991.853 | 986.2 | 980.175 | 973.774 | 967.022 | 959.923 | 952.467 | 944.681 | 936.552
x1 = 0.1001 | 990.982 | 984.3 | 977.4 | 970.258 | 962.871 | 955.236 | 947.339 | 939.185 | 930.768
x1 = 0.1496 | 985.446 | 977.467 | 969.396 | 961.197 | 952.86 | 944.358 | 935.674 | 926.784 | 917.665
x1 = 0.2001 | 975.602 | 967.23 | 958.776 | 950.269 | 941.571 | 932.714 | 923.678 | 914.46 | 905.046
x1 = 0.2996 | 953.237 | 944.826 | 936.29 | 927.601 | 918.738 | 909.696 | 900.476 | 891.074 | 881.47
x1 = 0.4001 | 932.582 | 924.145 | 915.578 | 906.849 | 897.972 | 888.926 | 879.715 | 870.324 | 860.741
x1 = 0.4995 | 915.228 | 906.757 | 898.165 | 889.428 | 880.556 | 871.523 | 862.344 | 852.997 | 843.475
x1 = 0.5998 | 900.588 | 892.069 | 883.427 | 874.666 | 865.773 | 856.742 | 847.577 | 838.26 | 828.782
x1 = 0.6995 | 888.711 | 880.119 | 871.429 | 862.629 | 853.712 | 844.674 | 835.508 | 826.212 | 816.767
x1 = 0.7976 | 879.041 | 870.383 | 861.635 | 852.787 | 843.839 | 834.781 | 825.611 | 816.324 | 806.909
x1 = 0.901 | 869.652 | 860.902 | 852.078 | 843.17 | 834.181 | 825.1 | 815.925 | 806.659 | 797.262
x1 = 1 | 860.459 | 851.605 | 842.69 | 833.715 | 824.673 | 815.559 | 806.37 | 797.093 | 787.723

CNCCCN [N-methyl-1,3-diaminopropane] + CCN(CC)CCO
mass density [kg/m3]
Settings | x1 = 0.0999 | x1 = 0.2 | x1 = 0.3001 | x1 = 0.3997 | x1 = 0.5 | x1 = 0.5998 | x1 = 0.7001 | x1 = 0.8 | x1 = 0.8996 | x1 = 1
283.15 K | 892.458 | 890.44 | 888.023 | 885.377 | 882.338 | 878.902 | 874.969 | 870.601 | 866.062 | 860.459
293.15 K | 883.574 | 881.665 | 879.317 | 876.712 | 873.685 | 870.252 | 866.283 | 861.885 | 857.283 | 851.605
303.15 K | 874.574 | 872.785 | 870.463 | 867.945 | 864.94 | 861.519 | 857.522 | 853.099 | 848.439 | 842.69
313.15 K | 865.456 | 863.792 | 861.601 | 859.082 | 856.105 | 852.691 | 848.689 | 844.237 | 839.53 | 833.715
323.15 K | 856.219 | 854.692 | 852.583 | 850.12 | 847.171 | 843.77 | 839.765 | 835.289 | 830.547 | 824.673
333.15 K | 846.874 | 845.474 | 843.452 | 841.042 | 838.132 | 834.751 | 830.75 | 826.265 | 821.487 | 815.559
343.15 K | 837.416 | 836.147 | 834.206 | 831.853 | 828.978 | 825.629 | 821.629 | 817.142 | 812.342 | 806.37
353.15 K | 827.843 | 826.695 | 824.829 | 822.533 | 819.712 | 816.396 | 812.413 | 807.931 | 803.118 | 797.093
363.15 K | 818.122 | 817.116 | 815.306 | 813.074 | 810.325 | 807.063 | 803.095 | 798.611 | 793.772 | 787.723

CNCCCN [N-methyl-1,3-diaminopropane] + CN(CCO)CCO
mass density [kg/m3]
Settings | x1 = 0.1001 | x1 = 0.2003 | x1 = 0.2999 | x1 = 0.3997 | x1 = 0.5 | x1 = 0.5999 | x1 = 0.7001 | x1 = 0.8002 | x1 = 0.9 | x1 = 1
293.15 K | 1026.93 | 1012.7 | 997.588 | 981.393 | 964.134 | 944.646 | 923.928 | 900.759 | 876.717 | 851.605
303.15 K | 1019.31 | 1005.01 | 989.787 | 973.417 | 956.077 | 936.426 | 915.36 | 892.077 | 868.035 | 842.69
313.15 K | 1011.66 | 997.273 | 981.94 | 965.391 | 947.946 | 928.152 | 907.016 | 883.714 | 859.287 | 833.715
323.15 K | 1003.95 | 989.479 | 974.031 | 957.394 | 939.738 | 919.85 | 898.494 | 874.972 | 850.467 | 824.673
333.15 K | 996.181 | 981.607 | 966.033 | 949.272 | 931.432 | 911.414 | 889.941 | 866.238 | 841.566 | 815.559
343.15 K | 988.342 | 973.656 | 957.953 | 941.042 | 923.056 | 902.895 | 881.277 | 857.422 | 832.576 | 806.37
353.15 K | 980.415 | 965.631 | 949.783 | 932.732 | 914.593 | 894.29 | 872.517 | 848.523 | 823.509 | 797.093
363.15 K | 972.409 | 957.499 | 941.523 | 924.324 | 906.038 | 885.584 | 863.668 | 839.559 | 814.342 | 787.723

Source: the NIST ThermoML archive (doi:10.1021/je400679k)
